Peptide text beside a SMILES is read from it.
Key:
[1] = In vitro ability to displace [125 I]CGRP from Calcitonin gene-related peptide type receptor at 4 degrees Centigrade in rabbit lung
[2] = In vitro ability to displace [125 I]CGRP from Calcitonin gene-related peptide type receptor at 4 degrees Celsius in rabbit porcine c+i

IC50 [1]	IC50 [2]	Structure (SMILES)
185 nM	995 nM	CC(C)C[C@H](NC(=O)COCCOCCNC(=O)[C@@H](NC(=O)[C@H](CS)NC(=O)[C@@H](NC(=O)[C@H](C)NC(=O)[C@@H](NC(=O)[C@H](CC(=O)O)NC(=O)[C@H](CS)NC(=O)[C@H](C)N)[C@@H](C)O)[C@@H](C)O)C(C)C)C(=O)N[C@@H](CO)C(=O)N[C@@H](CCCNC(=N)N)C(=O)N[C@@H](CO)C(=O)NCC(=O)NCC(=O)N[C@H](C(=O)N[C@H](C(=O)N[C@@H](CCCCN)C(=O)N[C@@H](CC(N)=O)C(=O)N[C@@H](CC(N)=O)C(=O)N[C@@H](Cc1ccccc1)C(=O)N[C@H](C(=O)N1CCC[C@H]1C(=O)N[C@H](C(=O)N[C@@H](CC(N)=O)C(=O)N[C@H](C(=O)NCC(=O)N[C@@H](CO)C(=O)N[C@@H](CCCCN)C(=O)N[C@@H](C)C(=O)N[C@@H](Cc1ccccc1)C(=O)O)C(C)C)[C@@H](C)O)C(C)C)C(C)C)C(C)C
4 nM	14 nM	CC(C)[C@H](NC(=O)CNC(=O)CNC(=O)[C@H](CO)NC(=O)[C@H](CCCN=C(N)N)NC(=O)[C@@H](NC(=O)[C@H](CCCN=C(N)N)NC(=O)[C@@H](NC(=O)[C@H](Cc1c[nH]cn1)NC(=O)[C@@H](NC(=O)[C@H](CS)NC(=O)[C@@H](NC(=O)[C@H](C)NC(=O)[C@@H](NC(=O)[C@H](CC(=O)O)NC(=O)[C@H](CS)NC(=O)[C@H](C)N)[C@@H](C)O)[C@@H](C)O)C(C)C)C(C)C)C(C)C)C(=O)N[C@H](C(=O)N[C@@H](CCCCN)C(=O)N[C@@H](CC(N)=O)C(=O)N[C@@H](CC(N)=O)C(=O)N[C@@H](Cc1ccccc1)C(=O)N[C@H](C(=O)N1CCC[C@H]1C(=O)N[C@H](C(=O)N[C@@H](CC(N)=O)C(=O)N[C@H](C(=O)NCC(=O)N[C@@H](CO)C(=O)N[C@@H](CCCCN)C(=O)N[C@@H](C)C(=O)N[C@@H](Cc1ccccc1)C(N)=O)C(C)C)[C@@H](C)O)C(C)C)C(C)C (H-ACDTATCVHVRVRSGGVVKNNFVPTNVGSKAF-NH2)

Source: BindingDB's records for doi:10.1016/0960-894X(95)00078-8 (1995)
